Reference: PMC12082688, “Temporal Distribution of Imidacloprid and Its Metabolites in Laying Hens: An Evaluation of the Potential Impact on Food Safety” (Journal of Agricultural and Food Chemistry, 2025)
“Also recorded” adds a separate entry of the source. Where two headings read alike, the source gives them in different places.

Experiments:
[1] = Plasma concentration versus time profile after a single oral gavage dose, LC-MS/MS; assay type: in vivo, Hy-line brown hens; conditions: for time until plasma concentration below the limit of quantitation: 1 mg/kg single oral gavage, LOQ 0.5 ng/mL; for Tmax: female, Hy-line brown, in vivo
Protocol: (§1) Seventy-five, 61-week-old, Hy-line brown hens weighing 1.6–2.4 kg were housed in individual, 22” × 24” × 16” cages with nest box curtains and scratch pads, on two levels. Hens were acclimatized for 1 week on a 16-h light:8-h dark cycle. A wall exhaust fan maintained the temperature between 17–19 °C. A standard layer diet containing corn and soybean meal, 4.9% calcium and 16.5% protein was available ad libitum (Webberville Feed & Grain Co., Webberville, MI, USA). Water was available ad libitum. Hens were weighed and randomly assigned to one of three treatment groups (n = 5 hens/group) that received imidacloprid at 1 and 10% of a reported LD50 for chickens corresponding to 1 and 10 mg/kg of IMI or a placebo treatment (Lafeber Nutristart 1:3 in water; Lafeber Co., Cornell, Il, USA).[14] Birds were fasted overnight. Prior to gavage, crops were palpated to ensure that they were empty.
(§2) Analytical grade (active) imidacloprid powder (ChemService, West Chester, PA, USA) was dissolved in ethanol (10% v/v), mixed with corn oil, and then further dissolved in Lafeber Nutristart (1:3 in water; Lafeber Co., Cornell, Il, USA) to obtain final concentrations of 0.8 or 0.08 mg/mL.[8],[14] Treatments were prepared on the morning of administration, protected from light, kept on ice, and mixed thoroughly prior to administration. The concentrations and purity of IMI were verified before the start of the trial. IMI was administered by oral gavage using a 60-cc syringe and a 10 Fr × 16 in. red rubber urethral feeding catheter. After each administration, the catheter was flushed with 5 mL of water. Birds received a similar volume of treatment or placebo (20–30 mL).
(§3) Approximately 2–3 mL of blood was sampled from the brachial vein at 1, 2, 4, 24, 48, and 168 h postexposure, transferred into 2 mL EDTA tubes, sat at room temperature for 1–2 h, centrifuged at 1200g for 10 min, plasma was transferred into microcentrifuge tubes, and samples were kept at 4 °C until analysis within 1 week of study completion. Birds were humanely euthanized by cervical dislocation (n = 5 hens/treatment/time point). At 1, 4, 24, 48, and 168 h postexposure, approximately 1.0 g from the left pectoralis major, left quadriceps, left liver lobe, coelomic fat pad, spleen, right cranial and middle kidney lobes, and brain (cerebrum, optic lobes, cerebellum, brainstem) were collected, placed in Whirl-Pak sample bags (Nasco Sampling LLC, Madison, WI, USA), and kept at −20 °C until analysis. Whole eggs that were spontaneously laid or near completion in the shell gland were collected at 24 (n = 27), 48 (n = 24), 72 (n = 13), and 168 h (n = 12) after treatment and cracked in half, and yolk and albumen were kept in screw top specimen containers at −20 °C until analysis. […] Doses and time points were based on similar studies done in chickens[8] and Japanese Quail.[7] All animal procedures were approved by the Institutional Animal Care and Use Committee (IACUC) at MSU no. PROTO202300371.
Neonicotinoids were extracted from 200 μL of plasma, which was added to a test tube with […] of 0.5 ng/mL ISTD in acetonitrile. The mixture was vortexed for 40 s until well-mixed and then centrifuged for 5 min at 3000g. The supernatant was removed and filtered through a 0.2 μm PTFE membrane filter into an autosampler vial for LC-MS/MS analysis.
Analysis was performed with a liquid chromatographic-tandem mass spectrometer, an AB Sciex 6500+ ESI-MS/MS (SCIEX, Framingham, MA, USA) interfaced to a Shimadzu LC (Shimadzu Corp, Kyoto, Japan). Chromatography was achieved using the Kinetex F5:2.6 μm (100 mm × 3 mm) column (Phenomenex, Torrance, CA, USA). The column temperature was maintained at 40 °C with a column heater. Injection volume was 10 μL. The mobile phase consisted of 0.1% formic acid in Milli-Q water (mobile phase A) and 0.1% formic acid in acetonitrile (mobile phase B) at a flow rate of 0.5 mL/min. […]

[2] = cited from earlier work
[3] = Distribution of IMI and metabolites in tissues, eggs and feces after a single oral gavage dose, LC-MS/MS; assay type: in vivo; conditions: for metabolite abundance in tissues: 1 and 10 mg/kg IMI single oral gavage, all sampled tissues; for metabolite concentrations in eggs versus regulatory thresholds: eggs within 24 h postexposure to IMI
Protocol: as §1, §2, §3
Tissues were prepared for analysis by sectioning 0.5 g of homogeneous tissue (free of connective and vascular tissue) and placing it in a 7 mL Precellys bead tissue homogenization tube. Egg yolk and albumin from individual eggs were homogenized with an Omni International (Kennesaw, GA, USA) 125/TM125-11 hand-held homogenizer with a stainless steel 7 mm generator probe. Similar to tissues, 0.5 g of egg homogenate was placed in a 7 mL Precellys bead tissue homogenization tube. Two milliliters of acetonitrile containing 1 ng/mL of ISTD was added. Tissues were homogenized at room temperature with a Precellys Evolution Homogenizer (Bertin Technologies, Montigny-Le-Bretonneux, France): Speed–4500g, Cycle 2 × 20 s with a 20 s pause between cycles. The homogenized tissues and egg were centrifuged at 5400g for 10 min to pellet solid material at the bottom of the tube. 250 μL of the clear top layer from each tube was transferred to an autosampler vial for LC-MS/MS analysis. […]

[4] = IMI equivalents (sum of IMI and 6-chloropyridinyl moiety metabolites) in poultry products versus CFR/EFSA tolerance; design: species or system Hy-line brown hens; conditions: in vivo
Source text: The specific absorption, distribution, metabolism, and excretion profile of IMI in laying hens and the presence of IMI and its metabolites in eggs are unknown. Therefore, the primary goal of this study was to evaluate food safety in the context of IMI’s temporal distribution and metabolite profile. To achieve this, IMI and its 6-chloropyridinyl moiety-containing metabolites (IMI-urea, IMI-olefin, desnitro-IMI, 5-OH-IMI, and 6-chloronicotinic acid) were quantitatively measured in blood, tissue, feces, and eggs following a single subclinical dose over time. These concentrations were measured using a liquid chromatography tandem mass spectrometry (LC-MS/MS) method and compared with tolerances established in the Code of Federal Regulations (CFR) and Article 12 of the European Food Safety Authority (EFSA) Regulation No 396/2005.[12],[13]
as §3
Tissues were prepared for analysis by sectioning 0.5 g of homogeneous tissue (free of connective and vascular tissue) and placing it in a 7 mL Precellys bead tissue homogenization tube. Egg yolk and albumin from individual eggs were homogenized with an Omni International (Kennesaw, GA, USA) 125/TM125-11 hand-held homogenizer with a stainless steel 7 mm generator probe. Similar to tissues, 0.5 g of egg homogenate was placed in a 7 mL Precellys bead tissue homogenization tube. Two milliliters of acetonitrile containing 1 ng/mL of ISTD was added. […]

[5] = test system: chickens; conditions: in vivo; cited from earlier work
[6] = in vivo, po; cited from earlier work
[7] = test system: layers; conditions: cited from earlier work
[8] = in vivo; cited from earlier work
[9] = test system: birds; design: method as in PMID 32274821; conditions: cited from earlier work
[10] = test system: laying hens; test: Response to treatment: clinical monitoring, post-mortem examination and daily egg production; assay type: in vivo; conditions: 1 or 10 mg/kg single oral gavage
Protocol: as §1
Analytical grade (active) imidacloprid powder (ChemService, West Chester, PA, USA) was dissolved in ethanol (10% v/v), mixed with corn oil, and then further dissolved in Lafeber Nutristart (1:3 in water; Lafeber Co., Cornell, Il, USA) to obtain final concentrations of 0.8 or 0.08 mg/mL.[8],[14] Treatments were prepared on the morning of administration, protected from light, kept on ice, and mixed thoroughly prior to administration. […]
Birds were closely monitored postgavage for any adverse reactions. […]

[11] = 10 mg/kg single oral gavage, read-out: time of peak concentration in plasma
[12] = domestic chickens, 15 days after the last exposure following daily exposure for 7 days

In the case of `O=[N+]([O-])/N=C1\NCC(O)N1Cc1ccc(Cl)nc1` (stereo not shown) [5-OH-IMI, 5-hydroxyimidacloprid], the “time until plasma concentration below the limit of quantitation” value [1] is listed as no more than 24 h, the Tmax [1, 11] is listed as 4 h and the “presence in feces, liver, muscle, spleen, kidney and brain” value (shortened to “presence in feces, liver, muscle, spleen”) [2, 12] is listed as “detected”. For the same compound, the “metabolite abundance in tissues” value [3] was “metabolized predominantly to 5-OH-IMI” and the “metabolite concentrations in eggs versus regulatory thresholds” value [3] was “exceeding current regulatory thresholds”.

With `O=C(O)c1ccc(O)nc1` [6-OH-NA, 6-hydroxy nicotinic acid] the “presence in fecal matter” value ([3]; feces collected after IMI single oral gavage) was “evidence in fecal matter for the formation; also recorded: presence of 6-OH-NA in fecal matter collected at 24 and 48 h post treatment”.

For `O=[N+]([O-])Nc1nccn1Cc1ccc(Cl)nc1` [IMI-olefin, imidacloprid-olefin], the “time until plasma concentration below the limit of quantitation” value [1] is listed as no more than 24 h, the “time of peak concentration in plasma” value ([1]; 10 mg/kg single oral gavage) is listed as 4 h and the “presence in feces, liver, muscle, spleen” value [2, 12] is listed as “detected”. The “metabolite abundance in tissues” value [3] was “more abundant metabolite observed in most tissues except in the kidney where it was notably absent” and the “metabolite concentrations in eggs versus regulatory thresholds” value [3] was “exceeding current regulatory thresholds”.

In the case of `O=C1NCCN1Cc1ccc(Cl)nc1` [IMI-urea, imidacloprid urea], the “time of peak concentration in plasma” value ([1]; 10 mg/kg single oral gavage) is reported as 4 h, the “presence of metabolite in sample types” value ([3]; 10 mg/kg IMI single oral gavage) is reported as “present in the 10 mg/kg treatment group for all sample types except in the liver” and the “metabolite abundance in tissues” value [3] is reported as “equally abundant in kidney with 5-OH-IMI”. The “metabolite concentrations in eggs versus regulatory thresholds” value [3] was “exceeding current regulatory thresholds”.

In the case of `O=[N+]([O-])NC1=NCCN1Cc1ccc(Cl)nc1` [IMI], the “IMI equivalents in adipose tissue versus 50 ppb (50 ng/g) threshold” value [4] is reported as “no animal exceeded”, the “IMI equivalents in brain, liver, spleen and kidney versus threshold (50 ng/g)” value [4] is reported as “surpassed the threshold for most animals” and the “IMI equivalents in liver and spleen versus threshold (50 ng/g)” value [4] is reported as “remained in excess of the threshold for several animals”. The “eggs with IMI equivalents exceeding the CFR regulatory threshold of 20 ppb (20 ng/g)” value [4] was 6 of 10, the “adjusted effective dose (ED50) for neurologic signs” value [5] was 11.2 mg/kg/day and the “residues in liver, pectoral muscle, brain and kidney” value [6] was “detected”. The LD50 [7] was 104.1 mg/kg, the Tmax ([1]; po, 1 mg/kg) was no more than 1 h and the Tmax ([1]; po, 10 mg/kg) was 4 h. For the same compound, the “time of absorption into the bloodstream” value [8] was no more than 1 h, the “time of excretion in feces” value [8] was no more than 24 h and the “presence in feces, liver, muscle, spleen” value ([2]; in vivo) was “detected”. For the same compound, the clinical signs ([9]; 10 mg/kg IMI administration) was “moderate sedation occurred within minutes”, the clinical signs ([9]; birds given 1 mg/kg) was “no outward clinical signs” and the “gross lesions at post-mortem examination” value [10] was “no gross lesions were observed”.

Work on `N=C1NCCN1Cc1ccc(Cl)nc1` [desnitro-IMI, desnitro imidacloprid] yielded a Tmax [1, 11] of 4 h.
